Literature values, collected in patent US6235268A, “Antiplaque oral composition and method” (Colgate-Palmolive Company, priority 2000, dated 2001).

Tested on: rats
Settings: Merck Index, Eleventh Ed., 1989

In the case of `COc1ccc(C(=O)c2ccccc2)c(O)c1` [2-hydroxy-4-methoxybenzophenone], the “LD-50 (oral/rats)” value is given as 12800 mg/kg.
